# Results taken from PubChem BioAssay AID248 (DTP/NCI, 2004).
# Where “and” joins values, the source holds several entries; their conditions need not be identical. Equal entries are not always repeated. Inconclusive results and toxic doses are left out.
# Test system: L1210 leukemia ip in BDF1 mice, survival T/C
# Assay: NCI In Vivo Anticancer Drug Screen. Data for tumor model L1210 Leukemia (intraperitoneal) in B6D2F1 (BDF1) mice
# Settings: endpoint: mean survival time, higher = longer survival
# Summary of the method: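 Mice bearing the transplanted tumor received compound or vehicle. Survival of the treated group was divided by that of the vehicle-treated control group to give the ratio.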
# [1] = dose: 100.0 mg/kg/injection, schedule: Q04DX003 (ip), vehicle: saline with Tween-80
# [2] = dose: 200.0 mg/kg/injection, schedule: Q04DX003 (ip), vehicle: saline with Tween-80
# [3] = dose: 100.0 mg/kg/injection, schedule: Q01DX001 (ip), vehicle: acetone
# [4] = dose: 200.0 mg/kg/injection, schedule: Q01DX001 (ip), vehicle: acetone
# [5] = dose: 400.0 mg/kg/injection, schedule: Q01DX001 (ip), vehicle: acetone
# [6] = dose: 100.0 mg/kg/injection, schedule: Q01DX001 (ip), vehicle: Klucel (hydroxypropylcellulose) (HPC)
# [7] = dose: 200.0 mg/kg/injection, schedule: Q01DX001 (ip), vehicle: Klucel (hydroxypropylcellulose) (HPC)
# [8] = dose: 400.0 mg/kg/injection, schedule: Q01DX001 (ip), vehicle: Klucel (hydroxypropylcellulose) (HPC)
# [9] = dose: 100.0 mg/kg/injection, schedule: Q01DX009 (ip), vehicle: Klucel (hydroxypropylcellulose) (HPC)
# [10] = dose: 100.0 mg/kg/injection, schedule: Q04DX003 (ip), vehicle: Klucel (hydroxypropylcellulose) (HPC)
# [11] = dose: 200.0 mg/kg/injection, schedule: Q04DX003 (ip), vehicle: Klucel (hydroxypropylcellulose) (HPC)
# [12] = dose: 400.0 mg/kg/injection, schedule: Q04DX003 (ip), vehicle: saline with Tween-80
# [13] = dose: 200.0 mg/kg/injection, schedule: Q01DX009 (ip), vehicle: Klucel (hydroxypropylcellulose) (HPC)
# [14] = dose: 400.0 mg/kg/injection, schedule: Q01DX009 (ip), vehicle: Klucel (hydroxypropylcellulose) (HPC)
# [15] = dose: 400.0 mg/kg/injection, schedule: Q04DX003 (ip), vehicle: Klucel (hydroxypropylcellulose) (HPC)
# [16] = dose: 50.0 mg/kg/injection, schedule: Q04DX002 (ip), vehicle: saline with Tween-80
# [17] = dose: 100.0 mg/kg/injection, schedule: Q04DX002 (ip), vehicle: saline with Tween-80
# [18] = dose: 200.0 mg/kg/injection, schedule: Q04DX002 (ip), vehicle: saline with Tween-80
# [19] = dose: 400.0 mg/kg/injection, schedule: Q04DX002 (ip), vehicle: saline with Tween-80
# [20] = dose: 100.0 mg/kg/injection, schedule: Q04DX003 (ip), vehicle: saline
# [21] = dose: 200.0 mg/kg/injection, schedule: Q04DX003 (ip), vehicle: saline
# [22] = dose: 400.0 mg/kg/injection, schedule: Q04DX003 (ip), vehicle: saline
structure (smiles),measurement,setting,value
O=C(CNC(=O)OCc1ccccc1)NC(Cc1ccccc1)C(=O)Oc1c(Cl)c(Cl)c(Cl)c(Cl)c1Cl (configuration not stated),T/C,"dose: 75.0 mg/kg/injection, schedule: Q01DX001 (ip), vehicle: carboxymethylcellulose (CMC)",106 % of control
same,T/C,"dose: 150.0 mg/kg/injection, schedule: Q01DX001 (ip), vehicle: carboxymethylcellulose (CMC)",98 % of control
same,T/C,"dose: 300.0 mg/kg/injection, schedule: Q01DX001 (ip), vehicle: carboxymethylcellulose (CMC)",91 % of control
O=C(O)c1cnc(Cl)c([N+](=O)[O-])c1,T/C,[1],96 % of control
same,T/C,[2],89 % of control
O=C(O)Cc1cccc(=O)n1Cc1ccccc1,T/C,"dose: 75.0 mg/kg/injection, schedule: Q04DX003 (ip), vehicle: Klucel (hydroxypropylcellulose) (HPC)",98 % of control
same,T/C,"dose: 150.0 mg/kg/injection, schedule: Q04DX003 (ip), vehicle: Klucel (hydroxypropylcellulose) (HPC)",100 % of control
same,T/C,"dose: 300.0 mg/kg/injection, schedule: Q04DX003 (ip), vehicle: Klucel (hydroxypropylcellulose) (HPC)",102 % of control
CC(=O)OCC1CCC(NC(=O)N(CCF)N=O)CC1 (configuration not stated),T/C,"dose: 9.0 mg/kg/injection, schedule: Q01DX001 (ip), vehicle: saline with Tween-80",106 % of control
same,T/C,"dose: 13.0 mg/kg/injection, schedule: Q01DX001 (ip), vehicle: saline with Tween-80",110 % of control
same,T/C,"dose: 20.0 mg/kg/injection, schedule: Q01DX001 (ip), vehicle: saline with Tween-80",100 % of control
same,T/C,"dose: 45.0 mg/kg/injection, schedule: Q01DX001 (ip), vehicle: saline with Tween-80",353 % of control
C1CCC2(CC1)SSC1(CCCCC1)S2,T/C,"dose: 100.0 mg/kg/injection, schedule: Q04DX003 (ip), vehicle: other",95 % of control
same,T/C,"dose: 200.0 mg/kg/injection, schedule: Q04DX003 (ip), vehicle: other",98 % of control
same,T/C,"dose: 400.0 mg/kg/injection, schedule: Q04DX003 (ip), vehicle: other",98 % of control
CC(O)C(C)(C)C(O)C(=O)NCCSc1ccc(Cl)cc1 (configuration not stated),T/C,[3],104 % of control
same,T/C,[4],104 % of control
same,T/C,[5],102 % of control
O=C(OC1COC(OC(=O)c2ccccc2)C(OC(=O)c2ccccc2)C1OC(=O)c1ccccc1)c1ccccc1 (configuration not stated),T/C,"dose: 50.0 mg/kg/injection, schedule: Q01DX001 (ip), vehicle: carboxymethylcellulose (CMC)",96 % of control
same,T/C,[6],102 % of control
same,T/C,[3],92 % of control
same,T/C,"dose: 100.0 mg/kg/injection, schedule: Q01DX001 (ip), vehicle: carboxymethylcellulose (CMC)",102 % of control and 103 % of control
same,T/C,"dose: 100.0 mg/kg/injection, schedule: Q01DX001 (ip), vehicle: saline",90 % of control
same,T/C,[7],102 % of control
same,T/C,[4],88 % of control
same,T/C,"dose: 200.0 mg/kg/injection, schedule: Q01DX001 (ip), vehicle: carboxymethylcellulose (CMC)",94 % of control and 91 % of control
same,T/C,[8],109 % of control
same,T/C,[5],90 % of control
same,T/C,"dose: 400.0 mg/kg/injection, schedule: Q01DX001 (ip), vehicle: carboxymethylcellulose (CMC)",94 % of control
same,T/C,"dose: 400.0 mg/kg/injection, schedule: Q01DX001 (ip), vehicle: saline",95 % of control
CCCC(OC(C)=O)C(Cl)(Cl)Cl (configuration not stated),T/C,"dose: 50.0 mg/kg/injection, schedule: Q01DX009 (ip), vehicle: Klucel (hydroxypropylcellulose) (HPC)",103 % of control
same,T/C,[9],107 % of control
same,T/C,[10],97 % of control
same,T/C,[11],97 % of control
COc1cc(C(=O)NOCc2cc3c(cc2Cl)OCO3)cc(OC)c1OC,T/C,"dose: 200.0 mg/kg/injection, schedule: Q04DX003 (ip), vehicle: saline sonified",92 % of control
same,T/C,"dose: 400.0 mg/kg/injection, schedule: Q04DX003 (ip), vehicle: saline sonified",90 % of control
Cc1cc(=O)n(C)c2c(C)cccc12,T/C,[1],101 % of control
same,T/C,[2],98 % of control
same,T/C,[12],98 % of control
COc1ccc(NNP(=O)(CCl)N(CCCl)CCCl)cc1 (configuration not stated),T/C,[6],104 % of control
same,T/C,[7],108 % of control
same,T/C,[8],108 % of control
CC(C)=C1CCC(C)C/C1=N\N=C(N)N (configuration not stated),T/C,"dose: 15.0 mg/kg/injection, schedule: Q01DX Z (ip), vehicle: carboxymethylcellulose (CMC)",100 % of control
same,T/C,"dose: 30.0 mg/kg/injection, schedule: Q01DX Z (ip), vehicle: carboxymethylcellulose (CMC)",106 % of control
same,T/C,"dose: 60.0 mg/kg/injection, schedule: Q01DX Z (ip), vehicle: carboxymethylcellulose (CMC)",89 % of control
same,T/C,"dose: 120.0 mg/kg/injection, schedule: Q01DX Z (oral), vehicle: carboxymethylcellulose (CMC)",97 % of control
same,T/C,"dose: 240.0 mg/kg/injection, schedule: Q01DX Z (oral), vehicle: carboxymethylcellulose (CMC)",97 % of control
same,T/C,"dose: 480.0 mg/kg/injection, schedule: Q01DX Z (oral), vehicle: carboxymethylcellulose (CMC)",101 % of control
C=CCOc1ccn(CC=C)c(=O)n1,T/C,[6],96 % of control
same,T/C,[7],98 % of control
same,T/C,[8],105 % of control
CSCc1ccc([N+](=O)[O-])cc1,T/C,[9],103 % of control
same,T/C,[10],101 % of control
same,T/C,[13],103 % of control
same,T/C,[11],106 % of control
same,T/C,[14],116 % of control
same,T/C,[15],95 % of control
CC(C)(CSCCSCC(C)(C)C(=O)O)C(=O)O,T/C,[9],94 % of control
same,T/C,[13],94 % of control
same,T/C,[14],91 % of control
COC(=O)C(CSCSC)NC(=O)/C=C/c1ccccc1Cl (configuration not stated),T/C,"dose: 50.0 mg/kg/injection, schedule: Q01DX009 (ip), vehicle: saline with Tween-80",97 % of control and 86 % of control
same,T/C,"dose: 100.0 mg/kg/injection, schedule: Q01DX009 (ip), vehicle: saline with Tween-80",92 % of control
same,T/C,[1],94 % of control
same,T/C,"dose: 200.0 mg/kg/injection, schedule: Q01DX009 (ip), vehicle: saline with Tween-80",93 % of control and 92 % of control
same,T/C,[2],91 % of control
same,T/C,[12],87 % of control
CCCC(CCC#N)C(=O)c1ccccc1 (configuration not stated),T/C,[6],91 % of control
same,T/C,[7],98 % of control
same,T/C,[8],95 % of control
CN=C(C)c1ccc(N(C)C)cc1,T/C,[10],101 % of control
same,T/C,[11],92 % of control
same,T/C,[15],97 % of control
CC(NC(=O)NCCCl)c1cccc2ccccc12 (configuration not stated),T/C,[10],102 % of control
same,T/C,[11],103 % of control
same,T/C,[15],95 % of control
O=C(O)c1ccc(B(O)O)cc1,T/C,[10],103 % of control
same,T/C,[11],103 % of control
same,T/C,[15],93 % of control
COc1ccc([N+](=O)[O-])c2c(C)cc(=O)[nH]c12,T/C,[6],100 % of control
same,T/C,[9],104 % of control
same,T/C,[7],94 % of control
same,T/C,[13],97 % of control
same,T/C,[8],94 % of control
O=C1C=CC(=O)C2=C1C1c3ccccc3C2c2ccccc21,T/C,[16],95 % of control
same,T/C,[17],95 % of control and 98 % of control
same,T/C,[18],92 % of control
same,T/C,[19],114 % of control
COc1cc(Cc2nccc3ccccc23)cc([N+](=O)[O-])c1OC,T/C,[16],97 % of control
same,T/C,[17],93 % of control
same,T/C,[18],90 % of control
same,T/C,[19],87 % of control
CCN1CCC2CN(C(=N)N)CCN2C1=O (configuration not stated),T/C,[20],101 % of control
same,T/C,[21],103 % of control
same,T/C,[22],116 % of control
CCCC(O)C[N+](=O)[O-] (configuration not stated),T/C,[20],103 % of control
same,T/C,[21],97 % of control
same,T/C,[22],101 % of control
C1CCN(/N=N/c2nn[nH]n2)CC1,T/C,[1],94 % of control
same,T/C,[2],91 % of control
same,T/C,[12],94 % of control
O=C(NC(=S)Nc1cccc(Cl)c1)c1cccc(Br)c1,T/C,[6],86 % of control
same,T/C,[9],98 % of control and 90 % of control
same,T/C,"dose: 100.0 mg/kg/injection, schedule: Q04DX002 (ip), vehicle: Klucel (hydroxypropylcellulose) (HPC)",91 % of control
same,T/C,[10],108 % of control
same,T/C,[7],117 % of control
same,T/C,[13],98 % of control and 90 % of control
same,T/C,"dose: 200.0 mg/kg/injection, schedule: Q04DX002 (ip), vehicle: Klucel (hydroxypropylcellulose) (HPC)",93 % of control and 91 % of control
same,T/C,[11],107 % of control
same,T/C,[8],86 % of control
same,T/C,[14],87 % of control and 91 % of control
same,T/C,"dose: 400.0 mg/kg/injection, schedule: Q04DX002 (ip), vehicle: Klucel (hydroxypropylcellulose) (HPC)",93 % of control and 91 % of control
same,T/C,[15],96 % of control
